Test results published in US9610274B2, “Methods for treating bipolar disorder” (priority 2010, dated 2017).

Experiments:
Type in all cases: in vivo
[1] = tested on: homozygous mutant dopamine transporter knockout (KO) mice; assay: Spontaneous activity in the open field, dopamine transporter KO mice; details: single SC injection, test compound 10, 30, 100 mg/kg, amphetamine 2 mg/kg, 90 min post-injection, relative to vehicle
Procedure: Male and female wild-type and homozygous mutant dopamine transporter KO mice (n˜10 mice/genotype/agent; produced by in vivo homologous recombination and bred at Duke University Medical Center, Durham, N.C.) were tested for spontaneous activity in the open field following a single injection of the vehicle or compound. […] All drugs were given in a volume of 5 mL/kg. Animals were returned to the open field for an additional 90 min. Spontaneous activity was evaluated in an automated Omnitech Digiscan apparatus (Accuscan Instruments, Columbus, Ohio). Activity was summated at 5 min intervals over the 2 h period of testing. Horizontal activity or locomotion was measured in terms of the total distance covered in cm, vertical activity or rearing was expressed in terms of the total numbers of vertical beam breaks, and stereotypy was quantified in terms of repetitive breaks of a given beam or beams with intervals of less than 1 sec. For the analyses, 10 WT and 10 KO mice were run in each of the treatment groups with approximately equal numbers of males and females assigned to each group. Data were analyzed by the Statistical Package for Social Sciences programs (version 11.0 for Windows; SPSS Science, Chicago, Ill.). The results for each dependent variable were analyzed by repeated analyses of variance (RMANOVA) for within subjects effects (group differences over time) and between-subjects effects (tests of main effects and interactions). Bonferroni corrected pair-wise comparisons were used as the post-hoc tests. A p <0.05 was considered significant.

wild-type mice = assay: Spontaneous activity in the open field, wild-type mice; details: WT mice; amphetamine 2 mg/kg SC; relative to vehicle
Procedure: Male and female wild-type and homozygous mutant dopamine transporter KO mice (n˜10 mice/genotype/agent; produced by in vivo homologous recombination and bred at Duke University Medical Center, Durham, N.C.) were tested for spontaneous activity in the open field following a single injection of the vehicle or compound. Mice were placed into the open field for 30 min and administered SC the vehicle (sterile water), 2 mg/kg amphetamine, or three concentrations of the test compound (10, 30, 100 mg/kg). All drugs were given in a volume of 5 mL/kg. Animals were returned to the open field for an additional 90 min. Spontaneous activity was evaluated in an automated Omnitech Digiscan apparatus (Accuscan Instruments, Columbus, Ohio). […] Horizontal activity or locomotion was measured in terms of the total distance covered in cm, vertical activity or rearing was expressed in terms of the total numbers of vertical beam breaks, and stereotypy was quantified in terms of repetitive breaks of a given beam or beams with intervals of less than 1 sec. […] Data were analyzed by the Statistical Package for Social Sciences programs (version 11.0 for Windows; SPSS Science, Chicago, Ill.). The results for each dependent variable were analyzed by repeated analyses of variance (RMANOVA) for within subjects effects (group differences over time) and between-subjects effects (tests of main effects and interactions). […]

isolated mice = assay: Isolation-induced fighting in mice; details: Mus musculus
Procedure: Male CD-1 mice (15-20 g) were utilized in this experiment. The test compound (15, 22 and 30 mg/kg) was dissolved in physiological saline (0.9%) and administered orally (PO) in a volume of 1 mL/100 g body weight.
Mice were isolated for up to 8 weeks in individual solid walled wire cages (24×20×17 cm). The animals were not disturbed except to replenish food. Aggression was tested by placing an intruder mouse into the home cage of the resident animal. Aggression was characterized by an attack on the “intruder” during a three minute period. […] Only those resident mice displaying fighting behavior were selected. […] ED50 values were calculated from the percent inhibition of fighting in computer program based on probit analysis.

[2] = tested on: adult human subjects with moderate or severe major depression without psychotic features; assay: Randomized double-blind placebo- and active-controlled 6-week study in major depression; details: paroxetine 20 mg/day; for MADRS response rate / MADRS remission rate: Week 6; for MADRS response rate: >50% improvement in MADRS total score; for MADRS remission rate: MADRS total score less than 9
Procedure: The primary objective of this study was to determine the efficacy of 2 target doses of test compound (200 and 400 mg/day) in comparison with placebo during 6 weeks of treatment in adult human subjects with moderate or severe major depression without psychotic features. An active comparator (paroxetine) was included to assist in distinguishing a negative study from a failed study. In addition, an exit interview was intended to gather information on unexpected benefits of the test compound in order to refine the clinical development program. […] In addition, positive effects of the test compound on ratings of physical energy/fitness, reduction in sadness or depression and mental energy or motivation.
This was a randomized, double-blind, parallel-group, active, and placebo-controlled, multicenter study conducted in the U.S. (23 centers) and Canada (4 centers). There were 2 phases: a pretreatment phase (screening/washout and a baseline visit) and a 6-week, double-blind treatment phase. Paroxetine, a positive control, was included to evaluate assay sensitivity. After washout (if needed) of prohibited substances, subjects were randomly assigned (1:1:1:1) to receive the test compound titrated to a target dose of 200 mg/day or 400 mg/day, matching placebo, or a fixed dose (20 mg/day) of paroxetine. Study drug was given twice daily for 6 weeks. Efficacy and safety were assessed weekly during the double-blind phase. Subjects completing the study underwent an Exit Interview (“Your Health and Well-Being”) and completed an Assessment of Benefits of Clinical-trial Drug-treatment (ABCD) questionnaire (U.S. sites only).

[3] = ITT (LOCF), change from baseline at Week 6
[4] = Per-Protocol (LOCF), change from baseline at Week 6

In the case of CC(N)Cc1ccccc1 (stereo not drawn) [Amphetamine, amphetamine, reference compound], the “spontaneous activity (locomotor, rearing and stereotypical activities)” value [1] is reported as “decreased them in KO animals” and the “spontaneous activity (locomotor, rearing and stereotypical activities)” value (wild-type mice) is reported as “increased locomotor, rearing and stereotypical activities in WT mice”.

CN(C)CCCN1c2ccccc2CCc2ccccc21 [Imipramine, imipramine, reference compound] was tested, and the inhibition at 15 mg/kg (isolated mice; 1 h, 15 mg/kg PO, 60 min after dosing) was 20%, the inhibition at 30 mg/kg (isolated mice; 1 h, 30 mg/kg PO, 60 min after dosing) was 50% and the ED50 (isolated mice; PO, inhibition of isolation-induced fighting, probit analysis, read-out: ED50 (mg/kg, PO) (confidence limits)) was about 30 mg/kg.

In the case of Fc1ccc([C@@H]2CCNC[C@H]2COc2ccc3c(c2)OCO3)cc1 [Paroxetine, paroxetine, reference compound], the MADRS response rate ([2]; ITT (LOCF)) is reported as 48%, the MADRS remission rate ([2]; ITT (LOCF)) is reported as 26% and the “3 Atypical items of HAM-D 31, mean result” value [2, 3] is reported as −0.6. For the same molecule, the “CGI-S score, mean result” value [2, 3] was −1.5, the “MADRS core mood subscale, mean result” value [2, 3] was −9.7 and the “MADRS sadness (Items 1 + 2), mean result” value [2, 3] was −3.9. The “MADRS total score (primary), mean result” value [2, 3] was −14.1, the “superiority to placebo on the primary endpoint (change from baseline at Week 6 in MADRS total score)” value ([2]; ITT (LOCF), test compound 200 mg and 400 mg) was “statistically significant superiority to placebo” and the MADRS response rate ([2]; Per-Protocol (LOCF)) was 60%. The MADRS remission rate ([2]; Per-Protocol (LOCF)) was 35%, the “CGI-S score, mean result” value [2, 4] was −1.9 and the “MADRS total score, mean result” value [2, 4] was −17.1. The “ABCD questionnaire items with statistically significant superiority to placebo” value ([2]; post hoc analyses, of 51 items, U.S. sites) was 14 items.
